Measured values: patent publication US9435795B2, “Enhanced deposition of chromogens utilizing pyrimidine analogs” (Ventana Medical Systems, Inc., priority 2010, dated 2016)
Values after ≈ are worked out from the molar mass of the structure shown. Values joined by “and” are separate entries in the source; they are usually repeats but may differ in a detail not shown here. Equal values may be shown once. Read-outs that look alike come from different tables or passages of the source.

Tests used:
[1] = target: T1, horseradish peroxidase (HRP) (Armoracia rusticana, UniProt P00433); assay: Plate assay: kinetic screening of enhancers of HRP-mediated DAB oxidation (ultraView Detection Kit, OD 455 nm); format: biochemical; settings: for Percent increase of apparent Vmax of HRP: relative to uView Vmax without enhancement
T1 construct: purchased VMSI (Ventana Medical Systems, Inc.) 760-500: 253-4290, 253-4292 and 253-4293
Description: The additives were directly added to a well containing the necessary reagents from the ultraView™ Detection Kit (VMSI 760-500: 253-4290, 253-4292 and 253-4293) in 1× Reaction Buffer (VMSI 950-300) and 0.1% fish gelatin. Fish gelatin was used to help disperse the oxidized DAB and inhibit its precipitation from solution. The ultraView™ Detection Kit was diluted to measure the formation of oxidized DAB by UV-VIS at 455 nm. Additives were tested at set concentrations to determine enhancement in the DAB oxidation reaction. The data were graphed, and the apparent maximum velocity (Vmax) was calculated at each additive concentration level.

ultraView HRP multimer = target: T2, ultraView HRP multimer (Armoracia rusticana, UniProt P00433); assay: Michaelis-Menten kinetics of HRP-oxidized DAB with enhanced DAB chromogen mixtures; format: biochemical, horseradish
T2 construct: purchased Ventana Medical Systems (ultraView kit component)
T2 sequence (P00433 31-338 limits assumed): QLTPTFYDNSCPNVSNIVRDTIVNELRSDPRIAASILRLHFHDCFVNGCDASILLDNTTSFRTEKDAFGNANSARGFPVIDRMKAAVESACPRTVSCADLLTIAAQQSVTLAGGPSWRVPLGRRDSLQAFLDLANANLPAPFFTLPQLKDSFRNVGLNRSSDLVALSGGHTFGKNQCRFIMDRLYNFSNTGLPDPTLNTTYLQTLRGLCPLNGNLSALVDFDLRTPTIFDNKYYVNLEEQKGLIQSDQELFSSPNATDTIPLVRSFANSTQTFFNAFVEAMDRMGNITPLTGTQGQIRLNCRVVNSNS
Description: To further study the synergistic effect in the increased apparent Vmax for HRP-oxidized DAB, Michaelis-Menten kinetics were calculated for the best enhanced DAB chromogen mixtures in Table 3. […] The definition of Vmax=kcat·[E]total when the enzyme substrate concentration was at saturation levels. When the concentration of enzyme was kept constant, the apparent Vmax is proportional to kcat (the apparent turnover for HRP or the first order rate constant).

[2] = Solubility of additive in reaction buffer / aqueous buffers; format: physicochemical; settings: for solubility: reaction buffer, aqueous buffer, read-out: Solubility of additive in reaction buffer at room temperature
[3] = Compatibility and stability of reformulated DAB Chromogen solution with additive; format: physicochemical
[4] = target: T1, horseradish peroxidase (HRP); assay: Plate assay: enhancers added sequentially to ultraView Detection Kit (synergistic/antagonistic effects); format: biochemical; settings: for Effect on apparent velocity of HRP when added to a preceding assay mixture of Table 2: NMO added to mixture 4, 50 mM L-histidine or 10 mM pyrimidine added to mixture 5
Description: The same concentration of reagents from the ultraView™ Detection Kit (VMSI 760-500: 253-4290, 253-4292 and 253-4293) were used in 1× Reaction Buffer™ containing 0.1% fish gelatin for each trial. In each trial, the enhancers were added together one at a time.

bcl2 on tonsil tissue = assay: IHC staining of bcl2 on tonsil tissue with enhanced DAB chromogen solutions, pathology scoring; settings: additive in DAB chromogen solution
Description: IHC staining was performed for bcl2 on tonsil tissue using enhanced DAB chromogen solutions to further examine enhancer synergistic effects on DAB deposition. Reader 1 performed all pathology evaluations during the same period of time.
Formalin fixed paraffin embedded tonsil tissue was mounted on Superfrost slides, deparaffinized and antigen retrieved using CC1 bulk reagent (Ventana® p/n 950-124). Following retrieval, one drop (100 μL) of UV Inhibitor (a component of the ultraView™ DAB kit) was dispensed onto a slide and incubated for 8 minutes. Following the incubation of the Inhibitor, 1 drop of the mouse anti-bcl2 (clone 124; Ventana® p/n 790-4464) was dispensed onto the slide and incubated for 16 minutes. Following 2 rinses with reaction buffer, the bcl2 antibody was detected using 1 drop of the ultraView™ universal HRP conjugate (a component of the ultraView™ DAB kit) and incubated on the slide for 8 minutes. One drop of DAB (5.5 mM DAB; 0.05% Brij® 35; plus any combination of enhancers investigated in table 3) and H2O2 were each added to the slides and incubated for 8 minutes. ultraView™ DAB was used as the reference. After rinsing the slides in reaction buffer, 100 μL of copper (component of ultraView™ DAB kit) was applied to slide for 4 minutes. Slides were counterstained using Hematoxylin II (Ventana® p/n 790-2208) and Bluing Reagent (Ventana p/n760-2037). […]

[5] = enhancer 10 mM, no enhancer 18.50
[6] = enhancer 50 mM, no enhancer 18.50, (sat) = reaction rate saturated by start of UV-VIS analysis
[7] = enhancer 100 mM, no enhancer 18.50, (sat) = reaction rate saturated by start of UV-VIS analysis
[8] = enhancer 10 mM in 50 mM imidazole, 10 mM calcium chloride, 10 mM boric acid

## Oc1ccccn1 [2-Hydroxypyridine]
[1]; [5]
  Vmax (apparent, HRP-oxidized DAB): 47.67 mOD/min
[1]; enhancer 10 mM
  Percent increase of apparent Vmax of HRP: 157%
[1]; [6]
  Vmax (apparent, HRP-oxidized DAB): 18.19 mOD/min
[1]; [7]
  Vmax (apparent, HRP-oxidized DAB): 15.98 mOD/min
ultraView HRP multimer; [8]
  Vmax: 383 mOD/min

## O=C1CC(=O)NC(=S)N1 [2-Thiobarbituric Acid]
[1]; [5]
  Vmax (apparent, HRP-oxidized DAB): 54.00 mOD/min
[1]; [6]
  Vmax (apparent, HRP-oxidized DAB): 56.00 mOD/min
[1]; [7]
  Vmax (apparent, HRP-oxidized DAB): 76.00 mOD/min

## CC(=O)Nc1ccc(B(O)O)cc1 [4-AcHNPhB(OH)2, 4-acetylamidophenyl boronic acid]
[1]; enhancer 5 mM, no enhancer 18.50
  Vmax (apparent, HRP-oxidized DAB): 21.20 mOD/min
[1]; [5]
  Vmax (apparent, HRP-oxidized DAB): 32.80 mOD/min
[1]; enhancer 10 mM
  Percent increase of apparent Vmax of HRP: 77%
[1]; enhancer 20 mM, no enhancer 18.50
  Vmax (apparent, HRP-oxidized DAB): 32.00 mOD/min

## CN(C)c1ccncc1 [4-dimethylaminopyridine]
[1]
  Enhancement of apparent velocity of HRP-mediated DAB oxidation (in words): no enhancement

## c1ccc2[nH]cnc2c1 [Benzimidazole]
[1]
  Enhancement of apparent velocity of HRP-mediated DAB oxidation (in words): no enhancement

## OB(O)O [Boric Acid]
[1]; [5]
  Vmax (apparent, HRP-oxidized DAB): 67.47 mOD/min
[1]; enhancer 10 mM
  Percent increase of apparent Vmax of HRP: 265%
[1]; enhancer 50 mM
  Percent increase of apparent Vmax of HRP: 592%

## [Ca+2].[Cl-].[Cl-] [Calcium Chloride]
[1]
  Vmax (apparent, HRP-oxidized DAB): 43.50 mOD/min and 52.50 mOD/min and 57.00 mOD/min

## Nc1cc[nH]c(=O)n1 [Cytosine]
[1]
  Enhancement of apparent velocity of HRP-mediated DAB oxidation (in words): increased the apparent velocity of HRP
[1]; [5]
  Vmax (apparent, HRP-oxidized DAB): 36.00 mOD/min
[1]; [6]
  Vmax (apparent, HRP-oxidized DAB): 66.00 mOD/min
[2]
  Solubility in aqueous buffers (in words): solubility problems in aqueous buffers
[2]; additive 50 mM
  solubility: 10 to 50 mM (≈ 1110 to 5560 µg/mL)
[2]; additive 100 mM
  solubility: 10 to 100 mM (≈ 1110 to 11100 µg/mL)

## c1c[nH]cn1 [Imidazole]
[1]; [5]
  Vmax (apparent, HRP-oxidized DAB): 28.80 mOD/min
[1]; enhancer 10 mM
  Percent increase of apparent Vmax of HRP: 56%
[3]; higher concentrations of imidazole, 50 mM L-histidine
  Precipitation of DAB from reformulated DAB Chromogen solution: causing DAB to precipitate
ultraView HRP multimer; 10 mM buffer salt with 10 mM pyrimidine, no enhancer 228
  Vmax: 330 mOD/min
ultraView HRP multimer; 50 mM buffer salt with 10 mM 2-hydroxypyrimidine (FIG. 19: also 10 mM boric acid, 10 mM calcium chloride)
  Vmax: 320 mOD/min
[4]; no enhancement 18.50
  Vmax (apparent, HRP-oxidized DAB), enhancers added sequentially: 34.00 mOD/min
bcl2 on tonsil tissue
  DAB staining on tissue, pathological review (in words): significantly increased the DAB staining intensity

## N[C@@H](Cc1c[nH]c2ccccc12)C(=O)O [L-Tryptophan]
[1]; [5]
  Vmax (apparent, HRP-oxidized DAB): 30.00 mOD/min
[1]; [6]
  Vmax (apparent, HRP-oxidized DAB): 52.00 mOD/min
[1]; [7]
  Vmax (apparent, HRP-oxidized DAB): 64.00 mOD/min

## C[N+]1([O-])CCOCC1 [NMO, 4-methyl-morpholine N-oxide]
[1]; enhancer 0.13% (10.7 mM)
  Vmax (apparent, HRP-oxidized DAB): 33.60 mOD/min
[1]; enhancer 0.25% (21.3 mM)
  Vmax (apparent, HRP-oxidized DAB): 43.60 mOD/min
[1]; enhancer 0.50% (42.7 mM)
  Vmax (apparent, HRP-oxidized DAB): 51.60 mOD/min
[4]
  Effect on apparent velocity of HRP when added to a preceding assay mixture of Table 2: antagonistic effect

## c1cocn1 [Oxazole]
[1]; [5]
  Vmax (apparent, HRP-oxidized DAB): 24.00 mOD/min
[1]; [6]
  Vmax (apparent, HRP-oxidized DAB): 40.00 mOD/min
[1]; [7]
  Vmax (apparent, HRP-oxidized DAB): 18.00 (sat) mOD/min

## [O-][n+]1cccnc1 [Pyrimidine-N-oxide]
[1]; [5]
  Vmax (apparent, HRP-oxidized DAB): 104.00 mOD/min
[1]; [6]
  Vmax (apparent, HRP-oxidized DAB): 104.00 mOD/min
[1]; [7]
  Vmax (apparent, HRP-oxidized DAB): 36.00 mOD/min
[3]
  Functionality over time of DAB reformulated with additive: lost functionality and stopped staining with time
ultraView HRP multimer; [8]
  Vmax: 374 mOD/min
bcl2 on tonsil tissue
  DAB staining on tissue, pathological review (in words): best DAB signal to background noise ratio for the two enhancers
[2]
  Solubility in aqueous buffers (in words): do not have solubility or volatility problems

## c1cncnc1 [Pyrimidine]
[1]; [5]
  Vmax (apparent, HRP-oxidized DAB): 104.00 mOD/min
[1]; enhancer 10 mM
  Percent increase of apparent Vmax of HRP: 462%
[1]; [6]
  Vmax (apparent, HRP-oxidized DAB): 124.00 mOD/min
[1]; enhancer 50 mM
  Percent increase of apparent Vmax of HRP: 570%
[1]; [7]
  Vmax (apparent, HRP-oxidized DAB): 36.80 (sat) mOD/min
ultraView HRP multimer; enhancer 50 mM in 50 mM imidazole, 10 mM calcium chloride, 10 mM boric acid
  Vmax: 326 mOD/min
[4]
  Effect on apparent velocity of HRP when added to a preceding assay mixture of Table 2: increased the apparent velocity of HRP

## CC1(C)CCCC(C)(C)N1[O] [TEMPO, 2,2,6,6-tetramethylpiperidine-1-oxyl]
[1]; enhancer 0.13% (8 mM)
  Vmax (apparent, HRP-oxidized DAB): 18.00 mOD/min
[1]; enhancer 0.25% (16 mM)
  Vmax (apparent, HRP-oxidized DAB): 24.80 mOD/min
[1]; enhancer 0.50% (32 mM)
  Vmax (apparent, HRP-oxidized DAB): 21.20 mOD/min

## c1cscn1 [Thiazole]
[1]; [5]
  Vmax (apparent, HRP-oxidized DAB): 66.40 mOD/min
[1]; [6]
  Vmax (apparent, HRP-oxidized DAB): 27.00 (sat) mOD/min
[1]; [7]
  Vmax (apparent, HRP-oxidized DAB): 27.05 (sat) mOD/min

## Cc1c[nH]c(=O)[nH]c1=O [Thymine]
[1]
  Enhancement of apparent velocity of HRP-mediated DAB oxidation (in words): increased the apparent velocity of HRP
[1]; [5]
  Vmax (apparent, HRP-oxidized DAB): 82.00 mOD/min
[1]; [6]
  Vmax (apparent, HRP-oxidized DAB): 86.00 mOD/min
[1]; [7]
  Vmax (apparent, HRP-oxidized DAB): 74.00 mOD/min

## O=c1cc[nH]c(=O)[nH]1 [Uracil]
[1]
  Enhancement of apparent velocity of HRP-mediated DAB oxidation (in words): increased the apparent velocity of HRP
[1]; [5]
  Vmax (apparent, HRP-oxidized DAB): 52.00 mOD/min
[1]; [6]
  Vmax (apparent, HRP-oxidized DAB): 72.00 mOD/min
[2]
  Solubility in aqueous buffers (in words): solubility problems in aqueous buffers
[2]; additive 50 mM
  solubility: 10 to 50 mM (≈ 1120 to 5600 µg/mL)
[2]; additive 100 mM
  solubility: 10 to 100 mM (≈ 1120 to 11200 µg/mL)

## CN(C)c1ccc2nc3ccc(=[N+](C)C)cc-3sc2c1 [methylene blue]
[1]
  Enhancement of apparent velocity of HRP-mediated DAB oxidation (in words): no enhancement

## c1ccc2c(c1)Nc1ccccc1S2 [phenothiazine]
[1]
  Enhancement of apparent velocity of HRP-mediated DAB oxidation (in words): no enhancement
